From US8530520B2, “Cycloalkyl-dione derivatives and methods of their use” (The Trustees Of The University Of Pennsylvania, priority 2011, dated 2013)

target: T1, human TP receptor (Homo sapiens, UniProt P21731); test: biochemical
T1 sequence (P21731 1-343): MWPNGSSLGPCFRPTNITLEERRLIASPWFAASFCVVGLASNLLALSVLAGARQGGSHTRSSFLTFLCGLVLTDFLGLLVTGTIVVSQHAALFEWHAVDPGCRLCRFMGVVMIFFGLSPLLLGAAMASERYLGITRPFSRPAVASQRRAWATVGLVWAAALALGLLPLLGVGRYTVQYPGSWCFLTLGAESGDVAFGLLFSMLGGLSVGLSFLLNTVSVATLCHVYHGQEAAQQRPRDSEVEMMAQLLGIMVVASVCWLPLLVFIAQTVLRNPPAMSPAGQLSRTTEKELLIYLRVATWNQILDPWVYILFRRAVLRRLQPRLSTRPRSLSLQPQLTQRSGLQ

Point of comparison: `O=C1CCC(O)=C1Cc1cccc(CCNS(=O)(=O)c2ccc(Cl)cc2)c1` [Compound 50, 4-Chloro-N-(3-((2-hydroxy-5-oxocyclopent-1-en-1-yl)methyl)phenethyl)benzenesulfonamide], IC50 11.4 µM. Against it:
- O=S(=O)(NCCc1cccc(CCc2nnn[nH]2)c1)c1ccc(Cl)cc1 [Compound 60] — 34-fold lower, 0.331 µM
- O=S(=O)(NCCc1cccc(CCCO)c1)c1ccc(Cl)cc1 [Compound 59] — not separable, > 10 µM
- O=c1c(O)c(NCc2cccc(CCNS(=O)(=O)c3ccc(Cl)cc3)c2)c1=O [Compound 61] — 32-fold lower, 0.359 µM
- CC1=C(O)C(Cc2cccc(CCNS(=O)(=O)c3ccc(Cl)cc3)c2)CC1=O (stereo not drawn) [Compound 42, 4-Chloro-N-(3-((2-hydroxy-3-methyl-4-oxocyclopent-2-en-1-yl)methyl)phenethyl)-benzenesulfonamide] — 35-fold lower, 0.328 µM
- O=C1C=C(O)C(Cc2cccc(CCNS(=O)(=O)c3ccc(Cl)cc3)c2)C1 (stereo not drawn) [Compound 41, 4-Chloro-N-(3-((2-hydroxy-4-oxocyclopent-2-en-1-yl)methyl)phenethyl)benzenesulfonamide] — 56-fold lower, 0.203 µM
